Two compounds from ChEMBL document CHEMBL3045932 (J Pestic Sci, 2005) can be followed below.

Series [1] relates to Echinochloa oryzicola. The series is described as follows: Herbicidal activity against 2.5-leaf stage of Echinochloa oryzicola assessed as growth inhibition at 2.5 g/a by greenhouse test in presence of fenitrothion. The format is functional, organism-based.
Series [2] deals with Echinochloa oryzicola. The series is described as follows: Herbicidal activity against 2.5-leaf stage of Echinochloa oryzicola assessed as growth inhibition at 2.5 g/a by greenhouse test in presence of triphenyl phosphate. The format is functional, organism-based.
Series [3] has as its system Oryza sativa. Description: Toxicity in Oryza sativa (rice) assessed as shoot length after 7 days by hydroponics test. The series is classed as organism-based. Conditions: 168 h, read-out: I50.
The test system of series [4] is Echinochloa oryzicola. The series is described as follows: Herbicidal activity against Echinochloa oryzicola assessed as shoot length after 7 days by hydroponics test. The series is classed as functional, organism-based. Conditions: 168 h, read-out: I50.
Series [5] relates to Echinochloa oryzicola. The series is described as follows: Drug metabolism in 2.5-leaf stage Echinochloa oryzicola assessed as 1-[1-(3,5-dichlorophenyl)-1-methylethyl]-4-methyl-3-phenyl-3-pyrrolin-2-one level per gram of fresh weight at 25 nM after 6 days. The series is classed as ADME, organism-based. Conditions: in vivo, 144 h, 0.025 µM.
The nature of series [6]: Drug metabolism assessed as parent compound level in presence of porcine esterase and 10 uM of triphenyl phosphate. Conditions: pig, isolated protein. The format is physicochemical.
Series [7] can be described thus: Drug metabolism assessed as formation of 1-[1-(3,5-dichlorophenyl)-1-methylethyl]-4-methyl-3-phenyl-3-pyrrolin-2-one in presence of porcine esterase and 10 uM triphenyl phosphate. The series is classed as physicochemical. The note with it: pig, isolated protein.
Series [8] can be described thus: Drug metabolism assessed as parent compound level in presence of porcine esterase and 1 uM of triphenyl phosphate. The series is classed as physicochemical. Conditions: pig, isolated protein.
The nature of series [9]: Drug metabolism assessed as formation of 1-[1-(3,5-dichlorophenyl)-1-methylethyl]-4-methyl-3-phenyl-3-pyrrolin-2-one in presence of porcine esterase and 1 uM triphenyl phosphate. The series is classed as physicochemical. The note with it: pig, isolated protein.
Series [10] can be described thus: Drug metabolism assessed as parent compound level in presence of porcine esterase. The series is classed as physicochemical. The note with it: pig, isolated protein.
Series [11] can be described thus: Drug metabolism assessed as formation of 1-[1-(3,5-dichlorophenyl)-1-methylethyl]-4-methyl-3-phenyl-3-pyrrolin-2-one in presence of porcine esterase. The format is physicochemical. The note with it: pig, isolated protein.
Series [12] concerns Oryza sativa. Description: Toxicity in zero transplanted Oryza sativa (rice) assessed as growth inhibition at 5 to 10 g/a by greenhouse test in presence of fenitrothion. The series is classed as organism-based. Conditions: in vivo.
In series [13] the test system is Oryza sativa. Description: Toxicity in zero transplanted Oryza sativa (rice) assessed as growth inhibition at 5 to 10 g/a by greenhouse test in presence of triphenyl phosphate. The format is organism-based. The note with it: in vivo.
Series [14] relates to Oryza sativa. The series is described as follows: Toxicity in zero transplanted Oryza sativa (rice) assessed as growth inhibition at 5 to 10 g/a by greenhouse test. The format is organism-based. Conditions: in vivo.
Series [15] concerns Oryza sativa. The series is described as follows: Toxicity in 2 cm transplanted Oryza sativa (rice) assessed as growth inhibition at 10 g/a by greenhouse test. The format is organism-based. The note with it: in vivo.
The subject of series [16] is Echinochloa oryzicola. The series is described as follows: Herbicidal activity against 2.5-leaf stage of Echinochloa oryzicola assessed as growth inhibition at 2.5 g/a by greenhouse test. The format is functional. The note with it: read-out: GI.
In series [17] the test system is Echinochloa oryzicola. Description: Herbicidal activity against Echinochloa oryzicola assessed as shoot length after 7 days by hydroponics test in presence of 1-aminobenzotriazole. The series is classed as functional, organism-based.
Series [18] has as its system Echinochloa oryzicola. The series is described as follows: Herbicidal activity against Echinochloa oryzicola assessed as shoot length after 7 days by hydroponics test in presence of tributylphosphate. The series is classed as functional, organism-based.
For series [19], the system named is Echinochloa oryzicola. Description: Herbicidal activity against Echinochloa oryzicola assessed as shoot length after 7 days by hydroponics test in presence of fenitrothion. The format is functional, organism-based.
For series [20], the system named is Echinochloa oryzicola. Description: Herbicidal activity against Echinochloa oryzicola assessed as shoot length after 7 days by hydroponics test in presence of triphenyl phosphate. The series is classed as functional, organism-based.
The subject of series [21] is Oryza sativa. The series is described as follows: Drug metabolism in 2.5-leaf stage Oryza sativa (rice) assessed as 1-[1-(3,5-dichlorophenyl)-1-methylethyl]-4-methyl-3-phenyl-3-pyrrolin-2-one level per gram of fresh weight at 25 nM after 6 days. The format is ADME, organism-based. Conditions: in vivo, 144 h, 0.025 µM.

Active and inactive are the calls of the source. The calls are words filed in the database; no cut-off is given here.

For the compound `CC1=C(c2ccccc2)C(=O)N(C(C)(C)c2cc(Cl)cc(Cl)c2)C1`, the “growth inhibition (GI)” value with Echinochloa oryzicola [1] and in the series on Echinochloa oryzicola [2] was “Active” each time. In addition, the IC50 in the series on Oryza sativa [3] is 115 nM; with Echinochloa oryzicola [4], 12 nM.
As for `COC(=O)C1(c2ccccc2)C(=O)N(C(C)(C)c2cc(Cl)cc(Cl)c2)C=C1C` (stereo not given), the Drug metabolism stood at 1.88 nM in the series with Echinochloa oryzicola [5]; 4.26 µM in [6]; 0.66 µM in series [7]; 2.5 µM in series [8]; 2.69 µM in series [9]; 1.97 µM in series [10]. Besides, the Drug metabolism came out at 3 µM in series [11] and 0.47 nM in the series on Oryza sativa [21]. The Activity entry was “Non-toxic” with Oryza sativa [12], “Non-toxic” in the series with Oryza sativa [13], “Toxic” in the series on Oryza sativa [14] and “Non-toxic” in the series with Oryza sativa [15]. The “growth inhibition (GI)” value in the series on Echinochloa oryzicola [1] and in the series with Echinochloa oryzicola [2] was “inactive” in each case. The inhibition of growth at 250 g/ha in the series with Echinochloa oryzicola [16] turned out to be 96%. Besides, the result with Echinochloa oryzicola [17] and with Echinochloa oryzicola [18] was Active. Besides, the result in the series on Echinochloa oryzicola [19] and with Echinochloa oryzicola [20] was inactive. The IC50 with Oryza sativa [3] came out at 2630 nM; with Echinochloa oryzicola [4], 25 nM.
